Measurements published in patent US8076487B2, “Pyridone derivative and herbicide” (Kumiai Chemical Industry Co., Ltd., priority 2006, dated 2011).

What was measured:
Type in all cases: in vivo
[1] = system: heartshape false pickerelweed (Monochoria vaginalis (Burm.f.) C.Presl); assay: Test Example 1: herbicidal effect by soil application to paddy field; details: paddy field soil application; active ingredient 1,000 g per 1 hectare; wettable powder added dropwise to water surface the day after sowing; examined on the 21st day after application
Procedure, shortened: (§1)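 Plants were sown in flooded (3 cm) paddy soil and evaluated for herbicidal effect 21 days after soil application in a greenhouse.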

[2] = system: Japanese bulrush (Scirpus juncoides Roxb.); assay: as above; details: paddy field soil application; active ingredient 1,000 g per 1 hectare; wettable powder added dropwise to water surface the day after sowing; examined on the 21st day after application
Procedure, shortened: as §1

[3] = system: early watergrass (Echinochloa oryzicola Vasing); assay: as above; details: paddy field soil application; active ingredient 1,000 g per 1 hectare; wettable powder added dropwise to water surface the day after sowing; examined on the 21st day after application
Procedure, shortened: as §1

[4] = system: barnyardgrass (Echinochloa crus-galli (L.) P. Beauv. var. crus-galli); assay: Test Example 3: herbicidal effect by application to upland field (foliage treatment); details: 14th day after application; for herbicidal effect (index), Barnyardgrass: foliage treatment, plants grown two weeks, 1,000 g active ingredient per hectare; for herbicidal effect, Barnyardgrass: foliage treatment, 1,000 g active ingredient per 1 hectare, greenhouse
Experimental: (§2) [table] Test Example 3 Test on Herbicidal Effect by Application to Upland Field In a 80 cm2 plastic pot, field soil was filled. Seeds of barnyardgrass (Echinochloa crus-galli (L.) P. Beauv. var. crus-galli), green foxtail (Setaria viridis (L.) P. Beauv.), velvetleaf (Abutilon theophrasti medicus), and slender amaranth (Amaranthus viridis L.) were sown and allowed to grow for two weeks in a greenhouse. Thereafter, the wettable powder prepared according to Formulation Example 1 was diluted in water and a 1,000 liter equivalent amount per 1 hectare so that the active ingredient becomes 1,000 g per 1 hectare was sprayed using a small sprayer from a top of the plants through its entire body for foliage treatment. Then, on the 14th day after the application to the plants grew in a greenhouse, the herbicidal effect was examined in accordance with a standard shown in Table 34.

[5] = system: slender amaranth (Amaranthus viridis L.); assay: as above; details: 14th day after application; for herbicidal effect (index), Slender Amaranth: foliage treatment, plants grown two weeks, 1,000 g active ingredient per hectare; for herbicidal effect, Slender Amaranth: foliage treatment, 1,000 g active ingredient per 1 hectare, greenhouse
Experimental: as §2

[6] = system: velvetleaf (Abutilon theophrasti medicus); assay: as above; details: 14th day after application; for herbicidal effect (index), Velvetleaf: foliage treatment, plants grown two weeks, 1,000 g active ingredient per hectare; for herbicidal effect, Velvetleaf: foliage treatment, 1,000 g active ingredient per 1 hectare, greenhouse
Experimental: as §2

[7] = system: green foxtail (Setaria viridis (L.) P. Beauv.); assay: as above; details: 14th day after application; for herbicidal effect (index), Green Foxtail: foliage treatment, plants grown two weeks, 1,000 g active ingredient per hectare; for herbicidal effect, Green Foxtail: foliage treatment, 1,000 g active ingredient per 1 hectare, greenhouse
Experimental: as §2

Compound | herbicidal effect, Monochoria vaginalis (Burm. f.) C. Presl [1] | herbicidal effect, Scirpus juncoides Roxb. [2] | herbicidal effect, Echinochloa oryzicola Vasing [3] | herbicidal effect (index), Barnyardgrass [4] | herbicidal effect (index), Slender Amaranth [5] | herbicidal effect (index), Velvetleaf [6] | herbicidal effect (index), Green Foxtail [7] | herbicidal effect, Barnyardgrass [4] | herbicidal effect, Slender Amaranth [5] | herbicidal effect, Velvetleaf [6] | herbicidal effect, Green Foxtail [7]
CCn1c(C(F)(F)F)ccc(C(=O)C2=C(O)CCCC2=O)c1=O [I-2] | 5 (90% or more of herbicidal effect and crop phytotoxicity) | 5 (90% or more of herbicidal effect and crop phytotoxicity) | 5 (90% or more of herbicidal effect and crop phytotoxicity) | 5 (90% or more of herbicidal effect and crop phytotoxicity) | 5 (90% or more of herbicidal effect and crop phytotoxicity) | 5 (90% or more of herbicidal effect and crop phytotoxicity) | 5 (90% or more of herbicidal effect and crop phytotoxicity) |  |  |  | 
CC(CCn1c(C(F)(F)F)ccc(C(=O)C2=C(O)CCCC2=O)c1=O)=C(F)F [I-27] | 5 (90% or more of herbicidal effect and crop phytotoxicity) | 5 (90% or more of herbicidal effect and crop phytotoxicity) | 5 (90% or more of herbicidal effect and crop phytotoxicity) | 4 (70 to less than 90% of herbicidal effect and crop phytotoxicity) | 5 (90% or more of herbicidal effect and crop phytotoxicity) | 5 (90% or more of herbicidal effect and crop phytotoxicity) | 3 (50 to less than 70% of herbicidal effect and crop phytotoxicity) |  |  |  | 
CCC(C)Nn1c(C(F)(F)F)ccc(C(=O)C2=C(O)CCCC2=O)c1=O (stereo not shown) [I-163] | 5 (90% or more of herbicidal effect and crop phytotoxicity) | 5 (90% or more of herbicidal effect and crop phytotoxicity) | 5 (90% or more of herbicidal effect and crop phytotoxicity) |  |  |  |  | 5 (90% or more of herbicidal effect and crop phytotoxicity) | 5 (90% or more of herbicidal effect and crop phytotoxicity) | 5 (90% or more of herbicidal effect and crop phytotoxicity) | 5 (90% or more of herbicidal effect and crop phytotoxicity)
COC(=O)Nn1c(C(F)(F)F)ccc(C(=O)C2=C(O)CCCC2=O)c1=O [I-189] | 5 (90% or more of herbicidal effect and crop phytotoxicity) | 5 (90% or more of herbicidal effect and crop phytotoxicity) | 5 (90% or more of herbicidal effect and crop phytotoxicity) |  |  |  |  | 4 (70 to less than 90% of herbicidal effect and crop phytotoxicity) | 5 (90% or more of herbicidal effect and crop phytotoxicity) | 5 (90% or more of herbicidal effect and crop phytotoxicity) | 4 (70 to less than 90% of herbicidal effect and crop phytotoxicity)
CC(C)=CCCn1c(C(F)(F)F)ccc(C(=O)c2cnn(C)c2O)c1=O [IV-15] | 5 (90% or more of herbicidal effect and crop phytotoxicity) | 5 (90% or more of herbicidal effect and crop phytotoxicity) | 5 (90% or more of herbicidal effect and crop phytotoxicity) |  |  |  |  | 4 (70 to less than 90% of herbicidal effect and crop phytotoxicity) | 5 (90% or more of herbicidal effect and crop phytotoxicity) | 5 (90% or more of herbicidal effect and crop phytotoxicity) | 5 (90% or more of herbicidal effect and crop phytotoxicity)
Cc1ccc(C(=O)C2=C(O)CCCC2=O)c(=O)n1-c1ccccc1 [I-229] | 5 (90% or more of herbicidal effect and crop phytotoxicity) | 4 (70 to less than 90% of herbicidal effect and crop phytotoxicity) | 4 (70 to less than 90% of herbicidal effect and crop phytotoxicity) |  |  |  |  | 4 (70 to less than 90% of herbicidal effect and crop phytotoxicity) | 5 (90% or more of herbicidal effect and crop phytotoxicity) | 5 (90% or more of herbicidal effect and crop phytotoxicity) | 4 (70 to less than 90% of herbicidal effect and crop phytotoxicity)
O=C1CCCC(O)=C1C(=O)c1ccc(C(F)(F)F)n(CSC2CCCCC2)c1=O [I-61] | 5 (90% or more of herbicidal effect and crop phytotoxicity) | 4 (70 to less than 90% of herbicidal effect and crop phytotoxicity) | 5 (90% or more of herbicidal effect and crop phytotoxicity) | 5 (90% or more of herbicidal effect and crop phytotoxicity) | 5 (90% or more of herbicidal effect and crop phytotoxicity) | 5 (90% or more of herbicidal effect and crop phytotoxicity) | 4 (70 to less than 90% of herbicidal effect and crop phytotoxicity) |  |  |  | 
CCCN(CCC)n1c(C(F)(F)F)ccc(C(=O)C2=C(O)CCCC2=O)c1=O [I-173] | 5 (90% or more of herbicidal effect and crop phytotoxicity) | 5 (90% or more of herbicidal effect and crop phytotoxicity) | 5 (90% or more of herbicidal effect and crop phytotoxicity) |  |  |  |  | 4 (70 to less than 90% of herbicidal effect and crop phytotoxicity) | 4 (70 to less than 90% of herbicidal effect and crop phytotoxicity) | 5 (90% or more of herbicidal effect and crop phytotoxicity) | 5 (90% or more of herbicidal effect and crop phytotoxicity)
COc1ccccc1COc1c(C(=O)c2ccc(C(F)(F)F)n(C)c2=O)cnn1C [IV-193] | 5 (90% or more of herbicidal effect and crop phytotoxicity) | 5 (90% or more of herbicidal effect and crop phytotoxicity) | 5 (90% or more of herbicidal effect and crop phytotoxicity) |  |  |  |  | 3 (50 to less than 70% of herbicidal effect and crop phytotoxicity) | 5 (90% or more of herbicidal effect and crop phytotoxicity) | 5 (90% or more of herbicidal effect and crop phytotoxicity) | 4 (70 to less than 90% of herbicidal effect and crop phytotoxicity)
CC(Cn1c(C(F)(F)F)ccc(C(=O)C2=C(O)CCCC2=O)c1=O)OCc1ccccc1 (stereo not shown) [I-43] | 4 (70 to less than 90% of herbicidal effect and crop phytotoxicity) | 5 (90% or more of herbicidal effect and crop phytotoxicity) | 5 (90% or more of herbicidal effect and crop phytotoxicity) | 5 (90% or more of herbicidal effect and crop phytotoxicity) | 5 (90% or more of herbicidal effect and crop phytotoxicity) | 5 (90% or more of herbicidal effect and crop phytotoxicity) | 4 (70 to less than 90% of herbicidal effect and crop phytotoxicity) |  |  |  | 
